ChEMBL document CHEMBL1159101, “Structural diversity of nucleoside phosphonic acids as a key factor in the discovery of potent inhibitors of rat T-cell lymphoma thymidine phosphorylase” (Bioorg Med Chem Lett, 2010)

How the values were obtained:
[1] = target: T1, Thymidine phosphorylase (Rattus norvegicus) (UniProt Q5FVR2); experiment: Inhibition of thymidine phosphorylase in T cell lymphomas of Sprague-Dawley rat assessed as residual activity at 10 uM in presence of 100 uM thymidine and 200 uM phosphate
T1 sequence (whole entry): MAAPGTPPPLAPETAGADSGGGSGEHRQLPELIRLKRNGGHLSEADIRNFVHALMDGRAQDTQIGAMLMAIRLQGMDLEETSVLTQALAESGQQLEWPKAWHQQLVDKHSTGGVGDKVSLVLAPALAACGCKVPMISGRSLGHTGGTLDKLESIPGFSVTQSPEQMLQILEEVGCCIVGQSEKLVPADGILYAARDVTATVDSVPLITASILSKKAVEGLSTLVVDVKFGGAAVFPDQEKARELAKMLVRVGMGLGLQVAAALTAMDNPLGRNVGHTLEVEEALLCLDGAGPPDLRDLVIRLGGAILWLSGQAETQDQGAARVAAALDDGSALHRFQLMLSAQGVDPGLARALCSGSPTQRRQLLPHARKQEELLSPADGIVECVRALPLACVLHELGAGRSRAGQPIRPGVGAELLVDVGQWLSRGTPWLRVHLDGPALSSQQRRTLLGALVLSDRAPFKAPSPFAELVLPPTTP

Thymidine phosphorylase = target: T2, Thymidine phosphorylase (Rattus norvegicus, UniProt Q5FVR2); experiment: Inhibition of thymidine phosphorylase in T cell lymphomas of Sprague-Dawley rat in presence of 100 uM thymidine and 200 uM phosphate; format: cell-based
T2 sequence (Q5FVR2 whole entry): T1 sequence (whole entry)

| Compound | Activity [1] [%] | IC50 (Thymidine phosphorylase) [nM] |
| --- | --- | --- |
| Cc1cn(C2CCN(C(=O)P(=O)(O)O)C2)c(=O)[nH]c1=O (racemic) | 3 | 350 |
| Cc1cn(CCOC2(P(=O)(O)O)CCCC2)c(=O)[nH]c1=O | 14 | – |
| Cc1cn([C@@H]2CN(C(=O)P(=O)(O)O)C[C@H]2O)c(=O)[nH]c1=O | 4 | 220 |
| Cc1cn(C2CCN(CP(=O)(O)O)C2)c(=O)[nH]c1=O (racemic) | 29 | – |
| Cc1cn(CCOC2(P(=O)(O)O)CCCCC2)c(=O)[nH]c1=O | 21 | – |
| Cc1cn([C@H]2C[C@H](CO)N(C(=O)P(=O)(O)O)C2)c(=O)[nH]c1=O | 2 | 45 |
| Cc1cn(C2CCN(C(=S)P(=O)(O)O)C2)c(=O)[nH]c1=O (racemic) | 9 | 190 |
| O=c1ccn([C@H]2C[C@@H](CO)N(CP(=O)(O)O)C2)c(=O)[nH]1 | 17 | – |
| Cc1cn([C@@H]2CN(C(=S)P(=O)(O)O)C[C@@H]2O)c(=O)[nH]c1=O | 0 | 15 |
| Cc1cn([C@@H]2CN(C(=O)P(=O)(O)O)C[C@@H]2O)c(=O)[nH]c1=O | 0 | 11 |
| C=CCOC(Cn1cc(C)c(=O)[nH]c1=O)OCP(=O)(O)O (stereo not given) | 10 | 300 |
| Cc1cn(C2CCN(C(=O)CP(=O)(O)O)C2)c(=O)[nH]c1=O (racemic) | 59 | – |

More lines, now with the values ahead:

| Activity [1] [%] | IC50 (Thymidine phosphorylase) [nM] | Compound |
| --- | --- | --- |
| 4 | – | Cc1cn([C@H]2C[C@H]3O[C@](c4ccccc4)(P(=O)(O)O)OC[C@H]3O2)c(=O)[nH]c1=O |
| 26 | – | Cc1cn([C@H]2C[C@H]3O[C@@](CBr)(P(=O)(O)O)OC[C@H]3O2)c(=O)[nH]c1=O |
| 0 | 250 | Cc1cn([C@H]2C[C@H](CO)N(CP(=O)(O)O)C2)c(=O)[nH]c1=O |
| 47 | – | Cc1cn([C@H]2C[C@H]3O[C@@](c4ccccc4)(P(=O)(O)O)OC[C@H]3O2)c(=O)[nH]c1=O |
| 1 | 750 | Cc1cn(CC(OCP(=O)(O)O)Oc2ccccc2)c(=O)[nH]c1=O (stereo not given) |
| 20 | – | Cc1cn([C@H]2C[C@H]3O[C@](CBr)(P(=O)(O)O)OC[C@H]3O2)c(=O)[nH]c1=O |
| 1 | 45 | Cc1cn([C@@H]2CN(CP(=O)(O)O)C[C@@H]2O)c(=O)[nH]c1=O |
| 9 | – | Cc1cn(CCOC(c2ccccc2)P(=O)(O)O)c(=O)[nH]c1=O (stereo not given) |
